Read-outs that look alike come from different tables or passages of the source.
Key:
AsPC-1 cells = assay: AsPC-1 CTG Assay (CellTiter-Glo cell viability, 72 h); format: cell-based, human; settings: read-out: G12D/C/V Cell Proliferation CTG (72 h) AsPC-1
Experimental: (§1) AsPC-1 and SW620 CTG Assay Protocols
(§2) Serially-diluted compound or DMSO was added to the cells, and plates were incubated at 37° C., 5% CO2 for 72 h. Cell viability was measured using a CellTiter-Glo® Luminescent Cell Viability Assay kit (Promega) according to the manufacturer's protocol. The luminescence signal of treated samples was normalized to DMSO control, and data were analyzed using a 4-parameter logistic model to calculate IC50 values.

MIA PaCa-2 cells = assay: MIA PaCa-2 CTG Assay (CellTiter-Glo cell viability, 72 h); format: cell-based, human; settings: second value of cell, read-out: G12D/C/V Cell Proliferation CTG (72 h) Mia PaCa-2
Experimental: MIA PaCa-2 CTG Assay Protocol
as §2

[1] = tested on: Phosphorylation of ERK1/2 in AsPC-1 cells; assay: Phospho-ERK1/2 MSD Assay; format: cell-based, human; settings: read-out: 2 h p-ERK (AsPC-1 cells), IC50
Experimental: Sixteen hours prior to compound treatment, AsPC-1 cells were seeded in 96-well cell culture plates at a density of 25,000 cells/well and incubated at 37° C., 5% CO2. A compound dose-response titration was diluted in growth media, added to appropriate wells of a cell culture plate, and then incubated at 37° C., 5% CO2 for 2 hours. […] Phosphorylation of ERK1/2 in compound-treated lysates was assayed using Phospho-ERK 1/2 Whole Cell Lysate kits (Meso Scale Discovery K151DWD) according to the manufacturer's protocol. Assay plates were read on a Meso Scale Discovery Sector Imager 6000, and data were analyzed using a 4-parameter logistic model to calculate IC50 values.

[2] = tested on: phospho-ERK1/2 in PANC 04.03 tumors; assay: Tumor Pharmacodynamic Assay (p-ERK inhibition in PANC 04.03 tumor-bearing mice); format: in vivo; settings: PANC 04.03 tumor-bearing female athymic nude mice; single oral dose 100 mg/kg; tumors harvested 2 hours later; p-ERK1/2 normalized to total ERK1/2, relative to vehicle group
Experimental: Tumor Pharmacodynamic Assays
Inhibitor pharmacodynamic effects were assessed in PANC 04.03 tumor-bearing mice. PANC 04.03 tumor cells (5.0E+06 cells) were injected subcutaneously into the flank of female athymic nude mice in a mixture with Matrigel (BD Bioscience). Mice received a single oral dose of either vehicle or inhibitors (100 mg/kg) when the average tumor size reached ˜300-600 mm^3 (n=3/group) and harvested 2 hours later. Tumor samples were collected, snap frozen, and processed for analysis by pulverizing with a cryoPREP® Dry Impactor (Covaris). Pulverized samples were resuspended in RIPA lysis buffer containing protease and phosphatase inhibitors and homogenized. Cleared lysates were analyzed using phospho-ERK1/2 and total ERK1/2 whole cell lysate kits (Meso Scale Discovery) according to the manufacturer's protocol. Phospho-ERK1/2 signal was normalized to total ERK1/2 signal for a given sample, and percent inhibition of p-ERK was calculated relative to the vehicle group.

[3] = target: His-tagged KRAS G12D protein (Homo sapiens, UniProt P01116, G12D); assay: KRAS G12D TR-FRET Assay; format: binding; settings: TR-FRET binding
His-tagged KRAS G12D protein, sequence (P01116 1-188 isoform P01116-2 G12D): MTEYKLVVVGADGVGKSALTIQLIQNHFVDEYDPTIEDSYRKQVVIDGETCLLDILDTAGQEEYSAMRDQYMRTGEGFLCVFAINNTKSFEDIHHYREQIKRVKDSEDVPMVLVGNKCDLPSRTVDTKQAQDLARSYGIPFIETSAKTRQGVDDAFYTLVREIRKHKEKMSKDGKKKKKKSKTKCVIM
Procedure, shortened: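 GDP-loaded His-KRAS G12D (20 nM in HEPES pH 7.4, MgCl2, NaCl, BSA, Tween-20, 10 μM GDP) preincubated with compound 30 min at room temperature, then 20 nM biotinylated KRPep-2d peptide added for 1 h. TR-FRET detection used Eu anti-His and streptavidin-d2, read after 1 h.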

[4] = 16-membered ring
SW620 cells = assay: SW620 CTG Assay (CellTiter-Glo cell viability, 72 h); format: cell-based; settings: Homo sapiens, SW-620, third value of cell, read-out: G12D/C/V Cell Proliferation CTG (72 h) SW620
Experimental: as §1
as §2, with “AsPC-1 (human pancreatic adenocarcinoma; ATCC CRL-1682) or SW620 (human colon adenocarcinoma; ATCC CCL-227) cells were cultured in RPMI 1640 medium containing 10% fetal bovine serum and 1× penicillin/streptomycin/L-glutamine. Cells were seeded in 384-well plates at a density of 3.33E+04 cells/mL and incubated at 37° C., 5% CO2, overnight. Serially-diluted” for “Serially-diluted”

[5] = 16-membered ring; remark: listed apart in the source
[6] = Homo sapiens, ASPC1, 72 h, AsPC-1 cells, 72 h, first value of cell
[7] = Homo sapiens, ASPC1, 2 h, AsPC-1 cells, 2 h compound treatment

With `O=C1OCCc2c(Cl)cc3[nH]ncc3c2-c2ncc3c(nc(OC[C@@]45CCCN4C[C@H](F)C5)nc3c2F)N2CCO[C@]3(C2)C[C@H](C3)O1` [Example 248, (1R.3R)-10-chloro-32-fluoro-24-(((2R,7aS)-2-fluorotetrahydro-1H-pyrrolo[1,2-α]pyrrol-7a(SH)-yl)methoxy)-4,6,30-trioxa-1.3,14,19,23,25,27-hexaazaheptacyclo[25.3.1.1~1,3~.1~18,22~.0~9.17~.0~12,16~.0~21,26~]tritriaconta-9,11,14,16,18(32),19,21,23,25-nonaen-5-one] as the compound, how does the IC50 (AsPC-1 cells; AsPC-1 cells, 72 h, first value of cell) read?
Its IC50 is 13 nM.

And the IC50 (MIA PaCa-2 cells)?
Its IC50 is 7 nM.

What about the IC50 ([1]; AsPC-1 cells, 2 h compound treatment) of the same compound?
Its IC50 is 7.8 nM.

And the “p-ERK (% inhibition) 2 hr.” value [2]?
The value was 85%.

Which IC50 [3] does the source give for `O=C1COCCc2c(Cl)cc3[nH]ncc3c2-c2ncc3c(nc(OC[C@@]45CCCN4C[C@H](F)C5)nc3c2F)N2CC[C@H]3CCN1[C@H]3C2` [Example 270] here?
Its IC50 is 7 nM.

What about the IC50 (AsPC-1 cells; [6]) of the same compound?
The IC50 was 606 nM.

And the IC50 (MIA PaCa-2 cells; Homo sapiens)?
Its IC50 is 675 nM.

What about the IC50 [1, 7] of the same compound?
Its IC50 is 123 nM.

What does the source list for `O=C1COCCCc2c(Cl)cc3[nH]ncc3c2-c2ncc3c(nc(OC[C@@]45CCCN4C[C@H](F)C5)nc3c2F)N2CC[C@H]3CCN1[C@H]3C2` [Example 168]?
IC50 (AsPC-1 cells): 10 nM; IC50 [1]: 1.3 nM; p-ERK (% inhibition) 2 hr. [2]: 65%

Which ring closure, isolated yield ([4]; from Cc1cc2c(cnn2C2CCCCO2)c(-c2ncc3c(N4CCCC(c5cn[nH]n5)C4)nc(OC[C@@]45CCCN4C[C@H](F)C5)nc3c2F)c1CCCCl, other bond, K2CO3/TBAI, MeCN, 6.9 mM, 85.0 °C, 3.0 h) does the source give for `Cc1cc2c(cnn2C2CCCCO2)c2c1CCCn1ncc(n1)C1CCCN(C1)c1nc(OC[C@@]34CCCN3C[C@H](F)C4)nc3c(F)c-2ncc13` (stereo partly shown) here?
Its ring closure, isolated yield is 31%.

For `C[C@@]12CCCCN(C1)c1nc(OC[C@@]34CCCN3C[C@H](F)C4)nc3c(F)c(ncc13)-c1c(c(Cl)cc3[nH]ncc13)CCCC(F)C(=O)N2` (mixture of isomers) [Example 281, (23RS,26R)-18-chloro-23,32-difluoro-4-(((2R,7aS)-2-fluorotetrahydro-1H-pyrrolo[1,2-a]pyrrol-7a(5H)-yl)methoxy)-26-methyl-1,3,5,9,14,15,25-heptaazahexacyclo[24.4.1.1~6,10~.0~2,7~.0~11,19~.0~12,16~]dotriaconta-2,4,6,8,10(32),11,13,16,18-nonaen-24-one], which IC50 (MIA PaCa-2 cells; Homo sapiens) is on record?
Its IC50 is 90 nM.

For `Cc1cc2c(cnn2C2CCCCO2)c2c1CCCCC(=O)N[C@@H]1CCCN(C1)c1nc(OC[C@@]34CCCN3C[C@H](F)C4)nc3c(F)c-2ncc13` (stereo partly shown), which ring closure, isolated yield ([4]; from Cc1cc2c(cnn2C2CCCCO2)c(-c2ncc3c(N4CCC[C@@H](N)C4)nc(OC[C@@]45CCCN4C[C@H](F)C5)nc3c2F)c1CCCCC(=O)O, amide bond, HATU/DIEA, DMA, 4.7 mM, 25.0 °C, 1.5 h) is on record?
Its ring closure, isolated yield is 22%.

For `Fc1c2ncc3c(nc(OC[C@@]45CCCN4C[C@H](F)C5)nc13)N1CCC[C@]3(C1)C[C@H](C3)OCCCCc1c(Cl)cc3[nH]ncc3c1-2` [Example 260, (1S,3R)-10-Chloro-32-fluoro-24-(((2R,7aS)-2-fluorotetrahydro-1H-pyrrolo[1,2-a]pyrrol-7a(5H)-yl)methoxy)-4-oxa-13,14,19,23,25,27-hexaazaheptacyclo[25.3.1.1˜1,3˜.1˜18,22˜.0˜9,17˜.0˜12,16˜.0˜21,26˜]tritriaconta-9,11,14,16,18(32),19,21,23,25-nonaene bis(2,2,2-trifluoroacetate)], which IC50 (AsPC-1 cells; [6]) is on record?
Its IC50 is 40 nM.

What about the IC50 (MIA PaCa-2 cells; Homo sapiens) of the same compound?
The IC50 was 26 nM.

What about the IC50 [1, 7] of the same compound?
The IC50 was 3.2 nM.

And the IC50 (SW620 cells)?
Its IC50 is 8 nM.

For `CSc1nc2c3cnc(c(C)c3n1)-c1cc(O)cc3ccc(F)c(c13)CCCC(=O)N[C@]1(C)CCCN2C1`, which ring closure, yield after HPLC ([5]; from CSc1nc(N2CCC[C@@](C)(N)C2)c2cnc(-c3cc(O)cc4ccc(F)c(CCCC(=O)O)c34)c(C)c2n1, amide bond, HATU, then Me2NH, DCM/DMA/DMF, 5.6 mM, 25.0 °C) is on record?
Its ring closure, yield after HPLC is 32%.

For `Cc1cc2[nH]ncc2c(-c2ncc3c(O)nc(OC[C@@]45CCCN4C[C@H](F)C5)nc3c2F)c1CCOC(=O)OC[C@@H]1CCCNC1`, which ring closure, yield after HPLC ([5]; the molecule shown is the open-chain precursor, snar bond) is on record?
The ring closure, yield after HPLC was 20%.

For `O=C1CCCc2c(F)ccc3cccc(c23)-c2ncc3c(nc(OC[C@@]45CCCN4C[C@H](F)C5)nc3c2F)N2CCC[C@H](C2)N1`, which ring closure, yield after HPLC ([5]; from N[C@@H]1CCCN(c2nc(OC[C@@]34CCCN3C[C@H](F)C4)nc3c(F)c(-c4cccc5ccc(F)c(CCCC(=O)O)c45)ncc23)C1, amide bond, HATU/DIEA, DMF, 5.9 mM, 0.5 h, 2 steps) is on record?
Its ring closure, yield after HPLC is 30%.

Which ring closure, yield after HPLC ([5]; from CN(C(=O)OCCCc1c(Cl)cc2[nH]ncc2c1-c1ncc2c(O)nc(OC[C@@]34CCCN3C[C@H](F)C4)nc2c1F)[C@@H]1CCCNC1, snar bond, PyBroP/DIEA, MeCN/DMSO, 11.7 mM, 25.0 °C, 2 steps) does the source give for `CN1C(=O)OCCCc2c(Cl)cc3[nH]ncc3c2-c2ncc3c(nc(OC[C@@]45CCCN4C[C@H](F)C5)nc3c2F)N2CCC[C@@H]1C2` here?
Its ring closure, yield after HPLC is 14%.

From patent publication US20260174769A1, “MACROCYCLIC COMPOUNDS AND METHODS OF USE” (AMGEN INC., priority 2022, published 2026)
